Laboratory results: ChEMBL document CHEMBL4261582, “Natural products as inhibitors of Leishmania major dihydroorotate dehydrogenase” (Eur J Med Chem, 2018)

How the values were obtained:
[1] = target: T1, Dihydroorotate dehydrogenase (fumarate) (Leishmania major, UniProt Q4QEW7); assay: Inhibition of recombinant oligo-histidine-tagged Leishmania major DHODH expressed in Escherichia coli BL21(DE3) cells using DHO as substrate measured after 60 secs
T1 sequence (Q4QEW7 whole entry): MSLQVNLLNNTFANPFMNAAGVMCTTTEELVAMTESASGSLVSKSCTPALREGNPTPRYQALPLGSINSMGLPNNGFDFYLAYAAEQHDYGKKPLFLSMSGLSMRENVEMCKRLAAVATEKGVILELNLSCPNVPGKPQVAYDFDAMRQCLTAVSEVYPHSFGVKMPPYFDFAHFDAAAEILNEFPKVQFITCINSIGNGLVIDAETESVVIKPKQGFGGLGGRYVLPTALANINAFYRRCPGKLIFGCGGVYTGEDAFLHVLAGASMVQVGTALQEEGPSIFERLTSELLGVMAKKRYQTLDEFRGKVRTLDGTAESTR

[2] = target: T2, Dihydroorotate dehydrogenase (fumarate) (Leishmania major) (UniProt Q4QEW7); assay: Binding affinity to Leishmania major DHODH assessed as change in melting temperature at 100 uM by differential scanning fluorimetry-based ThermoFMN assay
T2 sequence (whole entry): T1 sequence (Q4QEW7 whole entry)

[3] = target: T2, Dihydroorotate dehydrogenase (fumarate) (Leishmania major); assay: Binding affinity to Leishmania major DHODH assessed as change in melting temperature at 500 uM by differential scanning fluorimetry-based ThermoFMN assay
[4] = target: T2, Dihydroorotate dehydrogenase (fumarate) (Leishmania major); assay: Binding affinity to Leishmania major DHODH assessed as change in melting temperature at 1000 uM by differential scanning fluorimetry-based ThermoFMN assay
[5] = target: T2, Dihydroorotate dehydrogenase (fumarate) (Leishmania major); assay: Binding affinity to Leishmania major DHODH assessed as change in melting temperature at 100 uM by SYPRO orange dye-based differential scanning fluorimetry
[6] = target: T2, Dihydroorotate dehydrogenase (fumarate) (Leishmania major); assay: Binding affinity to Leishmania major DHODH assessed as change in melting temperature at 500 uM by SYPRO orange dye-based differential scanning fluorimetry
[7] = target: T2, Dihydroorotate dehydrogenase (fumarate) (Leishmania major); assay: Binding affinity to Leishmania major DHODH assessed as change in melting temperature at 1000 uM by SYPRO orange dye-based differential scanning fluorimetry
[8] = target: Dihydroorotate dehydrogenase (quinone), mitochondrial (Homo sapiens) (UniProt Q02127); assay: Inhibition of human DHODH at 100 uM
[9] = target: T2, Dihydroorotate dehydrogenase (fumarate) (Leishmania major); assay: Inhibition of recombinant oligo-histidine-tagged Leishmania major DHODH expressed in Escherichia coli BL21(DE3) cells at 100 uM using DHO as substrate measured after 60 secs
Leishmania donovani = assay: Antileishmanial activity against Leishmania donovani MHOM/ET/67/L82 amastigotes after 72 hrs by Alamar Blue assay; format: functional, organism-based; settings: MHOM/ET/67/L82, 72 h
Trypanosoma cruzi [10] = assay: Antitrypanosomal activity against Trypanosoma cruzi Tulahuen C2C4 trypomastigotes infected in rat skeletal myoblasts L-6 cells after 96 hrs by CPRG/Nonidet reagent based spectrophotometric method; format: functional, organism-based; settings: Tulahuen C2C4, L6, 96 h
[11] = test system: Trypanosoma brucei rhodesiense; assay: Antitrypanosomal activity against Trypanosoma brucei rhodesiense STIB 900 trypomastigotes after 72 hrs by Alamar Blue assay; format: functional, organism-based; settings: STIB 900, 72 h
Trypanosoma cruzi [12] = assay: Antitrypanosomal activity against Trypanosoma cruzi trypomastigotes; format: functional, organism-based
Leishmania amazonensis [13] = assay: Antileishmanial activity against Leishmania amazonensis MHOM/77BR/LTB0016 amastigotes infected in mouse peritoneal macrophages after 48 hrs by Giemsa staining-based assay; format: functional, organism-based; settings: MHOM/77BR/LTB0016, 48 h
Leishmania braziliensis = assay: Antileishmanial activity against Leishmania braziliensis H3227 MHOM/BR/94/H-3227 promastigotes after 72 hrs by MTT assay; format: functional, organism-based; settings: H3227 MHOM/BR/94/H-3227, 72 h
Leishmania amazonensis [14] = assay: Antileishmanial activity against Leishmania amazonensis WHOM/BR/75/Josefa promastigotes after 72 hrs by Neubauer chamber method; format: functional, organism-based
Leishmania amazonensis [15] = assay: Antileishmanial activity against Leishmania amazonensis WHOM/BR/75/Josefa amastigotes after 72 hrs by Neubauer chamber method; format: functional, organism-based

Sequence of Dihydroorotate dehydrogenase (quinone), mitochondrial (Homo sapiens) (Q02127 whole entry): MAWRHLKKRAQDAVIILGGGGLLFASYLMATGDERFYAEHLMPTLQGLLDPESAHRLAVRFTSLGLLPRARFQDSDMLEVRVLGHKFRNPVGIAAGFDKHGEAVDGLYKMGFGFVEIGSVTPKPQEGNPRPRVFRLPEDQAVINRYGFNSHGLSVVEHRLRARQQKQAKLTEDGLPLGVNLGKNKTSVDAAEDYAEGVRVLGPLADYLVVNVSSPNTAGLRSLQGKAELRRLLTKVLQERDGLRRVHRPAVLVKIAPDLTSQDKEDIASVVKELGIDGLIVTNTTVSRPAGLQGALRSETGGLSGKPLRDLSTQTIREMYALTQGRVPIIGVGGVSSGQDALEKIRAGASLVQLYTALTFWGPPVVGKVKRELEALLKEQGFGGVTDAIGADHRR

SMILES: C=C1C(=O)O[C@@H]2/C=C(\C)CC/C=C(/C=O)[C@@H](O)[C@@H](OC(=O)/C(C)=C\C)[C@@H]12
- IC50 ([1]; read-out: IC50): 644 µM
- ΔTm [2]: -0.48 °C
- ΔTm [3]: -1.07 °C
- ΔTm [4]: -1.48 °C
- ΔTm [5]: -0.09 °C
- ΔTm [6]: -0.17 °C
- ΔTm [7]: -0.07 °C

SMILES: O=c1c(O)c(-c2cc(O)c(O)c(O)c2)oc2cc(O)cc(O)c12 [MYRICETIN]
- inhibition [8]: 41%
- inhibition [9]: 67%
- IC50 (Leishmania donovani): 4.08 µM
- IC50 (Trypanosoma cruzi [10]): 94.3 µM
- IC50 [11]: 50 µM

SMILES: O=C(O)c1ccc(O)c(O)c1 [PROTOCATECHUIC ACID]
- IC50 ([1]; read-out: IC50): 922 µM
- IC50 [11]: 112 µM

SMILES: CC[C@@H](C)[C@@]1(O)O[C@H]2C[C@@]3(C)OC(=CC3=O)/C(COC(C)=O)=C\[C@H]3OC(=O)[C@@]1(C)[C@H]23
- IC50 ([1]; read-out: IC50): 1200 µM
- ΔTm [2]: -0.41 °C
- ΔTm [3]: -0.65 °C
- ΔTm [4]: -0.76 °C
- ΔTm [5]: -0.86 °C
- ΔTm [6]: -1.8 °C
- ΔTm [7]: -1.39 °C

SMILES: C=C1CC[C@H]2[C@@](C)(CCC[C@@]2(C)C(=O)O)[C@@H]1CCc1ccoc1
- IC50 ([1]; read-out: IC50): 2620 µM

SMILES: C=C1[C@@H]2CC[C@H]3[C@]4(C)CCC[C@@](C)(C(=O)O)[C@H]4CC[C@]3(C2)[C@H]1OC(=O)/C=C/c1ccccc1
- IC50 ([1]; read-out: IC50): 1420 µM

SMILES: C=C(C)C(=O)O[C@@H]1C[C@](C)(O)[C@@H]2C(=O)C=C(C)[C@@H]2[C@H]2OC(=O)C(=C)[C@@H]21
- IC50 ([1]; read-out: IC50): 662 µM

SMILES: CC[C@@H](C)[C@@]1(O)O[C@H]2C[C@@]3(C)OC(=CC3=O)/C(CO)=C\[C@H]3OC(=O)[C@@]1(C)[C@H]23
- IC50 ([1]; read-out: IC50): 985 µM
- IC50 ([1]; read-out: pIC50 (converted)): 794 µM
- ΔTm [2]: -0.15 °C
- ΔTm [3]: -0.32 °C
- ΔTm [4]: -0.61 °C
- ΔTm [5]: -0.13 °C
- ΔTm [6]: -0.96 °C
- ΔTm [7]: -1.83 °C

SMILES: C/C=C(/C)[C@@]1(O)O[C@H]2C[C@@]3(C)OC(=CC3=O)/C(C)=C\[C@H]3OC(=O)[C@@]1(C)[C@H]23
- IC50 ([1]; read-out: IC50): 346 µM

SMILES: C=C(C)C(=O)O[C@H]1C[C@@]2(C)OC(=CC2=O)[C@@H](C)C[C@H]2OC(=O)C(=C)[C@H]12
- IC50 ([1]; read-out: IC50): 145 µM
- ΔTm [2]: -0.27 °C
- ΔTm [3]: -0.22 °C
- ΔTm [4]: -0.27 °C
- ΔTm [5]: -0.18 °C
- ΔTm [6]: -0.27 °C
- ΔTm [7]: -0.45 °C

SMILES: O=c1ccc2ccc(O)cc2o1 [UMBELLIFERONE]
- IC50 ([1]; read-out: IC50): 467 µM
- IC50 (Leishmania donovani): 172 µM
- IC50 (Trypanosoma cruzi [10]): 555 µM
- IC50 [11]: 319 µM

SMILES: O=C(/C=C/c1ccc(O)c(O)c1)O[C@@H]1CC(O)(C(=O)O)C[C@@H](OC(=O)/C=C/c2ccc(O)c(O)c2)C1O (stereo not given in full)
- IC50 ([1]; read-out: IC50): 1280 µM

SMILES: COc1ccc(-c2oc3cc(O)cc(O)c3c(=O)c2O)cc1O [TAMARIXETIN]
- inhibition [8]: 29%
- inhibition [9]: 46%
- IC50 ([1]; read-out: IC50): 93.7 µM
- IC50 (Leishmania donovani): 53.1 µM
- IC50 (Trypanosoma cruzi [10]): 20.2 µM
- IC50 [11]: 46.8 µM

SMILES: O=C(O)c1cc(=O)[nH]c(=O)[nH]1
- ΔTm [2]: 1.29 °C
- ΔTm [3]: 4.32 °C
- ΔTm [4]: 6.12 °C
- ΔTm [5]: 0.39 °C
- ΔTm [6]: 1.43 °C
- ΔTm [7]: 1.62 °C

SMILES: O=C(/C=C/c1ccc(O)c(O)c1)O[C@@H]1C[C@@](O)(C(=O)O)C[C@@H](O)[C@@H]1O
- IC50 ([1]; read-out: IC50): 1130 µM

SMILES: C=C(C)C(=O)O[C@H]1C[C@@]2(C)OC(=CC2=O)/C(C)=C\[C@H]2OC(=O)C(=C)[C@H]12
- IC50 ([1]; read-out: IC50): 278 µM
- IC50 (Trypanosoma cruzi [12]): 514 µM

SMILES: O=C(O)/C=C/c1ccccc1O [O-COUMARIC ACID]
- IC50 ([1]; read-out: IC50): 806 µM
- IC50 (Leishmania donovani): 36.6 µM
- IC50 (Trypanosoma cruzi [10]): 183 µM
- IC50 [11]: 265 µM
- IC50 (Leishmania amazonensis [13]): 13.8 µM

SMILES: C=C1C(=O)O[C@@H]2/C=C(/C)C(=O)/C=C/[C@](C)(O)C[C@@H](OC(=O)C(C)C)[C@@H]12 [TAGITININ C]
- IC50 ([1]; read-out: IC50): 426 µM
- IC50 (Leishmania braziliensis): 9.2 µM

SMILES: C=C1CC[C@H]2[C@@](C)(CCC[C@@]2(C)C(=O)O)[C@@H]1CC/C(C)=C/C(=O)O
- IC50 ([1]; read-out: IC50): 707 µM
- IC50 (Leishmania amazonensis [14]): 83.7 to 111 µM
- IC50 (Leishmania amazonensis [15]): 47.4 to 50.8 µM
